Tests used:
[1] = target: c-MET (Homo sapiens, UniProt P08581); assay: HTRF kinase inhibitory assay, c-MET; type: biochemical; conditions: kinase inhibition % at 1 μM
[2] = system: NCI-H3122 cell line harbouring EML4-ALK fusion; assay: Antiproliferative MTT assay, NCI-H3122; type: cell-based, human; conditions: read-out: Cellular IC50 (μM) NCI-H3122; MTT, 72 h, mean of at least three independent experiments
[3] = system: phosphorylation of ROS1 and ERK in CD74-ROS1^L2026M cell; assay: Western blot of ROS1 and ERK phosphorylation, CD74-ROS1^L2026M Ba/F3 cells; type: cell-based
[4] = system: HCC-78 cells; assay: Apoptosis assay; type: cell-based, human
[5] = system: phosphorylation of ALK in EML4-ALK^L1196M cell; assay: Western blot of phosphorylation, EML4-ALK^L1196M Ba/F3 cells; type: cell-based
[6] = target: Ba/F3 CD74-ROS1^G2032R cell (Homo sapiens, UniProt P04233+P08922, G2032R); assay: Antiproliferative CCK-8 assay, Ba/F3 CD74-ROS1^G2032R; type: cell-based
[7] = system: NCI-H3122 cells; assay: Apoptosis assay; type: cell-based, human; conditions: 48 h, vehicle 11.24%
[8] = target: ROS1 (Homo sapiens, UniProt P08922); assay: HTRF KinEASE-TK kinase inhibitory assay, ROS1; type: biochemical; conditions: average of two independent experiments
[9] = system: ROS1 phosphorylation in CD74-ROS1^G2032R cell; assay: Western blot of ROS1 phosphorylation, CD74-ROS1^G2032R Ba/F3 cells; type: cell-based; conditions: up to 1000 nM
[10] = target: Ba/F3 CD74-ROS1^WT cell (Homo sapiens, UniProt P04233+P08922); assay: Antiproliferative CCK-8 assay, Ba/F3 CD74-ROS1^WT; type: cell-based; conditions: 72 h exposure, IC50, at least three independent experiments
[11] = system: HCC-78 cell line harbouring SLC34A2-ROS1 fusion; assay: Antiproliferative MTT assay, HCC-78; type: cell-based, human; conditions: read-out: Cellular IC50 (μM) HCC-78; MTT, 72 h, mean of at least three independent experiments
[12] = target: Ba/F3 CD74-ROS1^L2026M cell (Homo sapiens, UniProt P04233+P08922, L2026M); assay: Antiproliferative CCK-8 assay, Ba/F3 CD74-ROS1^L2026M; type: cell-based; conditions: read-out: Ba/F3 cellular activities (nM) CD74-ROS1^L2026M; 72 h exposure, IC50, at least three independent experiments
[13] = target: ALK^G1202R (Homo sapiens, UniProt Q9UM73, G1202R); assay: HTRF KinEASE-TK kinase inhibitory assay, ALK^G1202R; type: biochemical
[14] = target: Ba/F3 EML4-ALK^L1196M cell (Homo sapiens, UniProt Q9HC35+Q9UM73, L1196M); type: cell-based; conditions: read-out: Ba/F3 cellular activities (nM) EML4-ALK^L1196M; 72 h exposure, IC50, at least three independent experiments
[15] = system: phosphorylation of ROS1 and ERK in CD74-ROS1^WT cell; assay: Western blot of ROS1 and ERK phosphorylation, CD74-ROS1^WT Ba/F3 cells; type: cell-based
[16] = target: Ba/F3 EML4-ALK^WT cell (Homo sapiens, UniProt Q9HC35+Q9UM73); type: cell-based; conditions: read-out: Ba/F3 cellular activities (nM) EML4-ALK^WT; 72 h exposure, IC50, at least three independent experiments
[17] = target: ALK^L1196M (Homo sapiens, UniProt Q9UM73, L1196M); assay: HTRF KinEASE-TK kinase inhibitory assay, ALK^L1196M; type: biochemical; conditions: read-out: Enzymatic activities (nM) ALK^L1196M; IC50, average of two independent experiments
[18] = target: ALK^WT (Homo sapiens, UniProt Q9UM73); assay: HTRF KinEASE-TK kinase inhibitory assay, ALK wild type; type: biochemical

Substance: (R)-5–(5-(1-([1,1'-biphenyl]-2-yl)ethoxy)-6-aminopyridin-3-yl)-1'-methylspiro[indoline-3,4'-piperidin]-2-one [C01]
- c-MET Inhibition (1μM) [1]: 70%
- IC50 [2]: 3 ± 0.1 µM
- phosphorylation of ROS1 and ERK, CD74-ROS1^L2026M cell [3]: attenuated phosphorylation of ROS1 and its key downstream molecule ERK in a dose-dependent manner
- percentage of apoptotic HCC-78 cell ([4]; 2.0 μM (IC50/2), 48 h, vehicle 10.7%): 15.9%
- percentage of apoptotic HCC-78 cell ([4]; 7.8 μM (2 IC50), 48 h, vehicle 10.7%): 31.7%
- percentage of apoptotic HCC-78 cell ([4]; C01 3.9 μM (1 IC50) vs Crizotinib 4.5 μM (1 IC50)): superior to that of Crizotinib treatment group
- phosphorylation, EML4-ALK^L1196M cell [5]: persistent potency
- fold more potent than Crizotinib, CD74-ROS1^G2032R cell ([6]; ratio of cellular IC50 to Crizotinib): about 30 fold
- IC50 ([6]; read-out: Ba/F3 cellular activities (nM) CD74-ROS1^G2032R, 72 h exposure, IC50, at least three independent experiments): 42.3 nM
- percentage of apoptotic NCI-H3122 cell ([7]; 1.5 μM (IC50/2)): 15.61%
- percentage of apoptotic NCI-H3122 cell ([7]; 3.0 μM (1 IC50)): 29.47%
- percentage of apoptotic NCI-H3122 cell ([7]; 6.0 μM (2 IC50)): 35.13%
- ROS1 Inhibition (1μM) ([8]; kinase inhibition % at 1 μM): 100%
- IC50 ([8]; read-out: ROS1 IC50): 4.7 nM
- ROS1 phosphorylation, CD74-ROS1^G2032R cell [9]: significant inhibition of ROS1 phosphorylation occurred in a dose-dependent manner
- Ba/F3 cellular activities (nM) CD74-ROS1^WT [10]: comparable to Crizotinib
- IC50 ([10]; read-out: Ba/F3 cellular activities (nM) CD74-ROS1^WT): 7.6 ± 0.6 nM
- IC50 [11]: 3.9 ± 0.5 µM
- IC50 [12]: 33.1 ± 1.4 nM
- fold potency superior to Crizotinib, ALK^G1202R enzyme ([13]; ratio of enzymatic IC50 to Crizotinib): 10 fold
- IC50 ([13]; read-out: Enzymatic activities (nM) ALK^G1202R, IC50, average of two independent experiments): 49.1 nM
- IC50 [14]: 120 ± 17.3 nM
- phosphorylation of ROS1 and ERK, CD74-ROS1^WT cell [15]: attenuated phosphorylation of ROS1 and its key downstream molecule ERK in a dose-dependent manner
- IC50 [16]: 145 ± 36 nM
- IC50 [17]: 404 nM
- ALK Inhibition (1μM) ([18]; kinase inhibition % at 1 μM): 101%
- IC50 ([18]; read-out: ALK IC50): 25.6 nM
